Results reported in patent publication US10441562B2, “Aromatic farnesyl compound and application thereof” (INSTITUTE OF MICROBIOLOGY, CHINESE ACADEMY OF SCIENCES, priority 2015, dated 2019).
pIC50: −log10 of the molar value. Marks after values point to notes of the source that are not given here.

Tests used:
α-glucosidase = biological target: T1, α-glucosidase (Saccharomyces cerevisiae, UniProt P53341); assay: α-glucosidase inhibitory activity test in vitro; format: biochemical; settings: read-out: α-glucosidase inhibitory activity (IC50)
T1 construct: purchased Sigma Corporation G5003
T1 sequence (P53341 whole entry): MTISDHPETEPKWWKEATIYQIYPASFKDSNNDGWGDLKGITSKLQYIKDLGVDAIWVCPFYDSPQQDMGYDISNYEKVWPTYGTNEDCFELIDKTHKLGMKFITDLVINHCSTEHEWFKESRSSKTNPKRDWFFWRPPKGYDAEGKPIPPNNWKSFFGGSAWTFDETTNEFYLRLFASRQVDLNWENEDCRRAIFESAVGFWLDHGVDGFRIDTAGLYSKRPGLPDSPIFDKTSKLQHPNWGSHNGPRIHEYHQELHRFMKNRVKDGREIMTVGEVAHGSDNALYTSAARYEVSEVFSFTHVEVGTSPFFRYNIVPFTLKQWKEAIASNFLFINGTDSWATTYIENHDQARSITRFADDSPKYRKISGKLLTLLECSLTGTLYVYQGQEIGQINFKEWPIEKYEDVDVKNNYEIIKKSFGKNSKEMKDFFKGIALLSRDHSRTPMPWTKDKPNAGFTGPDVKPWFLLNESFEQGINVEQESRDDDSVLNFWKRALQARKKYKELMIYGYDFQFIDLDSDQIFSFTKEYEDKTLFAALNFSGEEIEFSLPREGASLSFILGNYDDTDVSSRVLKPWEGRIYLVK

aldose reductase = aldose reductase (Homo sapiens, UniProt P15121); assay: aldose reductase inhibitory activity test in vitro; format: biochemical
Procedure, shortened: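 Absorbance assay with 0.1 mM NADPH solution and enzyme preincubated with compound 10 min at room temperature, then 10 mM D,L-glyceraldehyde solution added as substrate. Incubation 30 min at 37 °C in PBS. Read-out is optical density at 340 nm, corrected with blank (no compound) and background (no substrate) wells.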

[1] = test system: hyperglycemia KK-A^y mice; assay: blood lipid and liver function of hyperglycemia KK-A^y mice; format: in vivo; settings: 3 weeks
Protocol: Materials: accurately weigh the 2 compounds S13 and S28 discussed in example 2, and then add 0.5% CMC-Na to make the solution of 5 mg/ml used for activity test. KK-A^y mice are purchased from Chinese Academy of Medical Sciences & Peking Union Medical College Institute of Animal Studies. Experiments are carried out after adapting to the environment (T=20-24° C., constant humidity: 50-60%, 12 hours light exposure (8:00-20:00), soundproof, free feeding and drinking) for 1 week. Glucometer is purchased from Roche.
Methods: 10 male C57 mice of 6-8 weeks of 20-22 g are used as normal control group (1). Detect the fasting glucose of male KK-A^y mice, which are 6-8 weeks with the weight of 28-32 g, and divide them into different groups according to the blood sugar level and body weight: (2) model control group, (3) which is administered by compound S13 with the dose of 1 mg/kg, (4) which is administered by compound S13 with the dose of 5 mg/kg, (5) which is administered by compound S13 with the dose of 10 mg/kg, (6) which is administered by compound S13 with the dose of 20 mg/kg, (7) which is administered by compound S28 with the dose of 1 mg/kg, (8) which is administered by compound S28 with the dose of 5 mg/kg, (9) which is administered by compound S28 with the dose of 10 mg/kg, (10) which is administered by compound S28 with the dose of 20 mg/kg, (11) which is administered by metformin with the dose of 8 g/kg, (12) which is administered by compound S13 with the dose of 2.5 mg/kg and metformin with the dose of 4 g/kg, (13) which is administered by compound S13 with the dose of 5 mg/kg and metformin with the dose of 4 g/kg, (14) which is administered by compound S28 with the dose of 2.5 mg/kg and metformin with the dose of […], (15) which is administered by compound S28 with the dose of 5 mg/kg and metformin with the dose of […]. Each group has 8 mice, and is administrated successively for 3 weeks. Model control group is given with equal amounts of 0.5% CMC-Na.
4) After the last administration, the mice are executed under anesthesia, and blood is taken to be centrifuged at 3000 rpm in 4[…]. Serum total cholesterol, low density lipoprotein and triglyceride TG are detected.

[2] = test system: Wister rats fed with choline deficient diet; assay: hepatic tissue section of non-alcohol fatty liver rats (HE); format: in vivo; settings: FIG. 2, 10 and 20 mg/kg
Protocol: Methods: male SPF level Wister rats are randomly divided into groups: (1) normal group (2) model control group (3) which is administered by compound S13 with the dose of 10 mg/kg (4) which is administered by compound S13 with the dose of 20 mg/kg (5) which is administered by compound S28 with the dose of 10 mg/kg […] which is administered by compound S28 with the dose of 20 mg/kg. Each group has 10 mice. The mice of normal group are fed with standard diet, the mice of other groups are fed with choline deficient diet (high-fat diet). Food intake and body weight are detected. Feeding with choline deficient diet are considered as a frequently-used hepatic adipose infiltration modeling method of rodent, which can induce the denaturation of hepatocyte, hepatitis and liver injury, at the same time the increase of blood lipid level can induce the insulin resistance.
After being fed with high-fat diet for 8 weeks, the mice of treated group are given drugs for 4 weeks successively. Model group and normal group are given with equal amounts of 0.5% CMC-Na. After administration of medicine for 4 weeks, the rats are executed under anesthesia, and then hepatic tissue and blood are collected.
4) Hepatic tissue section: after the last administration, the rats are executed under anesthesia. Collect the liver on the ice, then quickly fix the liver into formalin and prepare the tissue sections.

**Q.** How did the pIC50 (α-glucosidase) turn out when `CC(C)=CCC/C(C)=C/CCC1=C[C@@H](c2cc(O)ccc2O)OC1=O` [S28, (S,E)-5-(2,5-dihydroxyphenyl)-3-(4,8-dimethylnona-3,7-dien-1-yl)furan-2(5H)-one] was run?
**A.** 6.38

**Q.** And the pIC50 (aldose reductase)?
**A.** 5.80

**Q.** And the ALT ([1]; 1 mg/kg, groups 3, 7)?
**A.** 72.5** U/L

**Q.** What about the AST ([1]; 1 mg/kg, groups 3, 7) of the same compound?
**A.** 56.5** U/L

**Q.** What about the HDL-C ([1]; 1 mg/kg, groups 3, 7) of the same compound?
**A.** 22.1 mg/dL

**Q.** What about the LDL-C ([1]; 1 mg/kg, groups 3, 7) of the same compound?
**A.** 64** mg/dL

**Q.** And the SOD ([1]; 1 mg/kg, groups 3, 7)?
**A.** 5.12** U/L

**Q.** And the TC ([1]; 1 mg/kg, groups 3, 7)?
**A.** 134** mg/dL

**Q.** What about the TG ([1]; 1 mg/kg, groups 3, 7) of the same compound?
**A.** 325** mg/dL

**Q.** What about the ALT ([1]; 5 mg/kg, groups 4, 8) of the same compound?
**A.** 71.2** U/L

**Q.** And the AST ([1]; 5 mg/kg, groups 4, 8)?
**A.** 63.6** U/L

**Q.** And the HDL-C ([1]; 5 mg/kg, groups 4, 8)?
**A.** 22.3 mg/dL

**Q.** And the LDL-C ([1]; 5 mg/kg, groups 4, 8)?
**A.** 69* mg/dL

**Q.** And the SOD ([1]; 5 mg/kg, groups 4, 8)?
**A.** 4.25* U/L

**Q.** And the TC ([1]; 5 mg/kg, groups 4, 8)?
**A.** 134** mg/dL

**Q.** What about the TG ([1]; 5 mg/kg, groups 4, 8) of the same compound?
**A.** 312** mg/dL

**Q.** What about the ALT ([1]; 10 mg/kg, groups 5, 9) of the same compound?
**A.** 62.5** U/L

**Q.** And the AST ([1]; 10 mg/kg, groups 5, 9)?
**A.** 60.6** U/L

**Q.** What about the HDL-C ([1]; 10 mg/kg, groups 5, 9) of the same compound?
**A.** 22.5 mg/dL

**Q.** And the LDL-C ([1]; 10 mg/kg, groups 5, 9)?
**A.** 69* mg/dL

**Q.** What about the SOD ([1]; 10 mg/kg, groups 5, 9) of the same compound?
**A.** 4.12* U/L

**Q.** What about the TC ([1]; 10 mg/kg, groups 5, 9) of the same compound?
**A.** 135** mg/dL

**Q.** What about the TG ([1]; 10 mg/kg, groups 5, 9) of the same compound?
**A.** 331** mg/dL

**Q.** What about the ALT ([1]; 20 mg/kg, groups 6, 10) of the same compound?
**A.** 61.5** U/L

**Q.** And the AST ([1]; 20 mg/kg, groups 6, 10)?
**A.** 60.6** U/L

**Q.** And the HDL-C ([1]; 20 mg/kg, groups 6, 10)?
**A.** 22.4 mg/dL

**Q.** And the LDL-C ([1]; 20 mg/kg, groups 6, 10)?
**A.** 54** mg/dL

**Q.** And the SOD ([1]; 20 mg/kg, groups 6, 10)?
**A.** 4.34* U/L

**Q.** And the TC ([1]; 20 mg/kg, groups 6, 10)?
**A.** 123** mg/dL

**Q.** And the TG ([1]; 20 mg/kg, groups 6, 10)?
**A.** 312** mg/dL

**Q.** And the “fat vacuole in hepatocyte (liver tissue section, HE)” value [2]?
**A.** almost disappear

**Q.** `CC(C)=CCC/C(C)=C/CCC1=C[C@H](c2cc(O)ccc2O)OC1=O` [S13, (R,E)-5-(2,5-dihydroxyphenyl)-3-(4,8-dimethylnona-3,7-dien-1-yl)furan-2(5H)-one] was tested. Which pIC50 (α-glucosidase) did it give?
**A.** 6.57

**Q.** And the pIC50 (aldose reductase)?
**A.** 5.74

**Q.** What about the ALT ([1]; 1 mg/kg, groups 3, 7) of the same compound?
**A.** 72.1** U/L

**Q.** And the AST ([1]; 1 mg/kg, groups 3, 7)?
**A.** 56.2** U/L

**Q.** And the HDL-C ([1]; 1 mg/kg, groups 3, 7)?
**A.** 22.4 mg/dL

**Q.** And the LDL-C ([1]; 1 mg/kg, groups 3, 7)?
**A.** 64* mg/dL

**Q.** And the SOD ([1]; 1 mg/kg, groups 3, 7)?
**A.** 5.01** U/L

**Q.** What about the TC ([1]; 1 mg/kg, groups 3, 7) of the same compound?
**A.** 132** mg/dL

**Q.** And the TG ([1]; 1 mg/kg, groups 3, 7)?
**A.** 328** mg/dL

**Q.** And the ALT ([1]; 5 mg/kg, groups 4, 8)?
**A.** 72.8** U/L

**Q.** And the AST ([1]; 5 mg/kg, groups 4, 8)?
**A.** 63.5** U/L

**Q.** And the HDL-C ([1]; 5 mg/kg, groups 4, 8)?
**A.** 22.4 mg/dL

**Q.** And the LDL-C ([1]; 5 mg/kg, groups 4, 8)?
**A.** 64** mg/dL

**Q.** What about the SOD ([1]; 5 mg/kg, groups 4, 8) of the same compound?
**A.** 4.24* U/L

**Q.** What about the TC ([1]; 5 mg/kg, groups 4, 8) of the same compound?
**A.** 134** mg/dL

**Q.** And the TG ([1]; 5 mg/kg, groups 4, 8)?
**A.** 310** mg/dL

**Q.** What about the ALT ([1]; 10 mg/kg, groups 5, 9) of the same compound?
**A.** 67.1** U/L

**Q.** And the AST ([1]; 10 mg/kg, groups 5, 9)?
**A.** 60.8** U/L

**Q.** And the HDL-C ([1]; 10 mg/kg, groups 5, 9)?
**A.** 22.5 mg/dL

**Q.** And the LDL-C ([1]; 10 mg/kg, groups 5, 9)?
**A.** 64** mg/dL

**Q.** And the SOD ([1]; 10 mg/kg, groups 5, 9)?
**A.** 4.11** U/L

**Q.** And the TC ([1]; 10 mg/kg, groups 5, 9)?
**A.** 131** mg/dL

**Q.** And the TG ([1]; 10 mg/kg, groups 5, 9)?
**A.** 327** mg/dL

**Q.** And the ALT ([1]; 20 mg/kg, groups 6, 10)?
**A.** 61.2** U/L

**Q.** And the AST ([1]; 20 mg/kg, groups 6, 10)?
**A.** 60.5** U/L

**Q.** What about the HDL-C ([1]; 20 mg/kg, groups 6, 10) of the same compound?
**A.** 22.1 mg/dL

**Q.** And the LDL-C ([1]; 20 mg/kg, groups 6, 10)?
**A.** 53** mg/dL

**Q.** And the SOD ([1]; 20 mg/kg, groups 6, 10)?
**A.** 4.52** U/L

**Q.** What about the TC ([1]; 20 mg/kg, groups 6, 10) of the same compound?
**A.** 125** mg/dL

**Q.** What about the TG ([1]; 20 mg/kg, groups 6, 10) of the same compound?
**A.** 310** mg/dL

**Q.** What about the “fat vacuole in hepatocyte (liver tissue section, HE)” value [2] of the same compound?
**A.** almost disappear
